Experimental data taken from PMC7395062, “Multiparametric assessment of mitochondrial respiratory inhibition in HepG2 and RPTEC/TERT1 cells using a panel of mitochondrial targeting agrochemicals” (Archives of Toxicology, 2020).
Where two headings read alike, the source gives them in different places.

Tests used:
HepG2 cells [1] = test: Resazurin reduction viability assay, 2D HepG2; assay type: cell-based, human; conditions: HepG2, galactose
Description: The HepG2 cell line, a human hepatocellular carcinoma, was obtained from ATCC (American Type Culture Collection, Wesel, Germany). […] Cells were maintained at 37 °C in a 5% CO2 humidified atmosphere, fed every 2 to 3 days and passaged at approximately 80% confluence. […] For galactose experiments, the medium was refreshed 24 h before exposure with galactose-containing medium. […] Culture medium was refreshed every 3–4 days and the culture was maintained for 21 days prior to dosing.
(§1) The conversion of resazurin to fluorescent resorufin was measured in a plate reader at excitation/emission 540/590 nm.
(§2) All results are average of 2–3 independent experiments.

[2] = test system: CII/CIII (succinate dehydrogenase / cytochrome bc1 complex); assay type: cell-based, human; conditions: permeabilised HepG2; sequential substrates/inhibitors
Description: The test compound is injected and OCR is measured. […] OCR is measured for the second time. […] A third and final OCR measurement is conducted.
Compounds were injected sequentially and OCR was measured twice. […] ETC inhibition is determined in decreased OCR.
as §2

RPTEC/TERT1 cells [3] = test: Seahorse mitostress assay in intact cells (OCR/ECAR), RPTEC/TERT1; assay type: cell-based, human
Description: The Seahorse bioanalyzer simultaneously measures cellular oxygen consumption rates (OCR) and extracellular acidification rates (ECAR). The mitostress assay utilises a sequential addition of modulators of the oxidative phosphorylation to assess key parameters of mitochondrial function. […] It is worth noting here that RPTEC/TERT1 require longer differentiation time in the Seahorse plates, potentially due to sub-optimum gas exchange in the Seahorse culture plates. HepG2 cells were cultured at the density of 15,000 cells/well on collagen-coated (2.5 µg/µL collagen IV, Merck, C7521) Seahorse cell culture microplates two days prior to analysis.
The mitostress test was performed as described (Eakins et al. [2016]; Tilmant et al. [2018]). Immediately before the assay, cell culture medium was replaced with 180 µL of Seahorse XF Base Medium without phenol red (Agilent, 1003335-100), supplemented with 10 mM D-glucose (Merck, G7021), 5 mM HEPES (Merck, H4034), 2 mM sodium pyruvate (Merck, P5281) and 1 mM L-glutamine (Merck, G8540). Cells were allowed to equilibrate for 45 min in a non-CO2 37 °C incubator. […] OCR was measured five times after test compound injection and three times for all injections. Each measurement consisted of a 3 min mix and subsequent 3 min read cycle. […]

HepG2 cells [4] = test: Seahorse mitostress assay in intact cells (OCR/ECAR), HepG2; conditions: seen at 2 and 10 µM
HepG2 cells [5] = test: Cell death (PI staining) in 2D HepG2 by live confocal imaging; assay type: cell-based, human
Description: After 1 h incubation at 37° C, the medium was removed and 25 μL complete DMEM containing 0.2 μM Rho123 and 100 nM propidium iodide (PI) (Merck, P4170) was added, followed by 25 μL of medium containing 2×, the desired concentration of test compound. […] The confocal imaging was performed using a Nikon TiE2000 with perfect focus system and xy-stage (Nikon, Amsterdam, The Netherlands). Quantification of the Hoechst, Rho123 and PI signal intensity and localization were performed using CellProfiler version 2.1.1 (Broad Institute, Cambridge, USA). […] The PI-positive nuclei were identified by masking the previous segmented nuclei and the PI signal. More than 10% overlap was considered as PI positive. All CellProfiler analyses were stored as HDF5 files. The combination of an internally developed R script, run in Rstudio (Boston, USA), was used for data extraction including Rho123 signal intensity, fraction PI positive and nuclear count.
as §2

RPTEC/TERT1 cells [6] = test: Resazurin reduction viability assay, RPTEC/TERT1; assay type: cell-based, human
Description: These cells were obtained under licence from Evercyte GmBH, Vienna Austria. […] For experiments, cells were plated in a required format plate, allowed to become contact-inhibited and fed 24 h prior to treatment exposure. For experiments in galactose condition, cells were fed 24 h prior to experiment with culture medium (custom made DMEM/F12, PromoCell) in which 5 mM glucose was replaced with 5 mM galactose (Merck, G5388).
as §1, §2

RPTEC/TERT1 cells [7] = test: Mitochondrial membrane potential (MMP) assay with JC-1; assay type: cell-based, human; conditions: RPTEC/TERT1, JC-1, 24 h
Description: JC-1 is a single-excitation dual-emission fluorescence-based assay that allows for ratiometric semiquantitative assessment of mitochondrial membrane potential (Perry et al. [2011]). For quantification of changes in MMP cells were pre-loaded, for approximately 1.5 h, with the JC-1 pre-loading solution containing 9 µM JC-1 (Invitrogen, 65-0851-38), 9 µL/mL Pluronic F-127 10% in water (Invitrogen, P6866) and 5 µM Cyclosporine A (CsA) (Merck, 30024), a P-glycoprotein (P-gp) inhibitor, to prevent dye extrusion due to the expression of efflux pumps in RPTEC/TERT1 cell line. After this incubation time, cells were washed and exposed to test compounds dissolved in a JC-1 treatment solution containing 0.5 µM JC-1, 1.5 µL/mL Pluronic F-127 and 1 µM CsA for the desired time. We have previously determined that CsA at up to 5 µM has no adverse effect on RPTEC/TERT1 cells for up to 14 days (Wilmes et al. [2013]). Fluorescence was measured in a plate reader at excitation 492 nm and dual emission, 535 nm for monomers and 590 nm for dimers. Results are presented as the dimer/monomer ratio and expressed as percentage of untreated samples.
(§3) All results are average of 2–3 independent experiments. […] Leist, University of Konstanz (Krebs et al. [2020]).

HepG2 cells [8] = test: Mitochondrial membrane potential (Rho123) live confocal imaging; assay type: cell-based, human; conditions: HepG2, Rho123, 24 h
Description: Rhodamine 123 (Rho123) (Merck, R8004) was used in a live confocal imaging setting for the assessment of effects at MMP. Rho123 localises to mitochondria and the decline in fluorescence is proportional to a decrease in MMP (Johnson et al. [1980], [1981]). HepG2 were seeded at 10,000 cells/30 μL/well in a 384-wells μCLEAR® black plate (Greiner Bio-One, 781 091). Two days post-seeding, 30 μL complete HepG2 culture medium, containing 200 ng/μL Hoechst 33342 (Life technologies, H1399) and 1 μM Rho123, was added to the medium. After 1 h incubation at 37° C, the medium was removed and 25 μL complete DMEM containing 0.2 μM Rho123 and 100 nM propidium iodide (PI) (Merck, P4170) was added, followed by 25 μL of medium containing 2×, the desired concentration of test compound. The intensity of Hoechst, Rho123 and PI, was monitored using live confocal imaging for 24 h using the 408, 488 and 561 nm laser, respectively. The confocal imaging was performed using a Nikon TiE2000 with perfect focus system and xy-stage (Nikon, Amsterdam, The Netherlands). Quantification of the Hoechst, Rho123 and PI signal intensity and localization were performed using CellProfiler version 2.1.1 (Broad Institute, Cambridge, USA). The nuclear identification based on the Hoechst signal was performed using an internally created segmentation module (Di et al. [2012]), followed by a cytoplasmic identification based on a specific distance from these nuclei. The PI-positive nuclei were identified by masking the previous segmented nuclei and the PI signal. More than 10% overlap was considered as PI positive. All CellProfiler analyses were stored as HDF5 files. The combination of an internally developed R script, run in Rstudio (Boston, USA), was used for data extraction including Rho123 signal intensity, fraction PI positive and nuclear count.
as §3

## Cc1ccc(-c2c(Cl)nc(C#N)n2S(=O)(=O)N(C)C)cc1 [Cyazofamid]
HepG2 cells [1]; h = 10 µM
  Statistical significance, Viability Galactose settings Resazurin: * (*p < 0.05 (Tables 3, 4))
[2]
  ETC-complex specificity pattern (CII/CIII): CII inhibition pattern but only at 100 µM
RPTEC/TERT1 cells [3]; RPTEC/TERT1, seen at 2 and 10 µM
  Uncoupling effect in mitostress OCR: strong uncoupling effect
HepG2 cells [4]
  Uncoupling effect in mitostress OCR: strong uncoupling effect

## Cc1nn(C)c(Oc2ccccc2)c1C=NOCc1ccc(C(=O)OC(C)(C)C)cc1 [Fenpyroximate]
HepG2 cells [5]
  Statistical significance, Cell death (% 24h) Galactose: * (*p < 0.05 (Tables 3, 4))
HepG2 cells [1]; d = 0.016 µM
  Statistical significance, Viability Galactose settings Resazurin: * (*p < 0.05 (Tables 3, 4))
HepG2 cells [1]; e = 0.08 µM
  Statistical significance, Viability Galactose settings Resazurin: * (*p < 0.05 (Tables 3, 4))
HepG2 cells [1]; g = 7 µM
  Statistical significance, Viability Galactose settings Resazurin: * (*p < 0.05 (Tables 3, 4))
HepG2 cells [1]; h = 10 µM
  Statistical significance, Viability Galactose settings Resazurin: * (*p < 0.05 (Tables 3, 4))
RPTEC/TERT1 cells [6]
  Statistical significance, Viability Glucose settings Resazurin: * (*p < 0.05 (Tables 3, 4))
RPTEC/TERT1 cells [6]; RPTEC/TERT1, e = 0.08 µM
  Statistical significance, Viability Galactose settings Resazurin: * (*p < 0.05 (Tables 3, 4))
RPTEC/TERT1 cells [6]; RPTEC/TERT1, g = 7 µM
  Statistical significance, Viability Galactose settings Resazurin: * (*p < 0.05 (Tables 3, 4))
RPTEC/TERT1 cells [6]; RPTEC/TERT1, h = 10 µM
  Statistical significance, Viability Galactose settings Resazurin: * (*p < 0.05 (Tables 3, 4))
RPTEC/TERT1 cells [6]; RPTEC/TERT1, glucose, g = 7 µM
  Statistical significance, Viability Glucose settings Resazurin: * (*p < 0.05 (Tables 3, 4))
RPTEC/TERT1 cells [6]; RPTEC/TERT1, glucose, h = 10 µM
  Statistical significance, Viability Glucose settings Resazurin: * (*p < 0.05 (Tables 3, 4))

## CC(C)Oc1cccc(NC(=O)c2ccccc2C(F)(F)F)c1 [Flutolanil]
RPTEC/TERT1 cells [7]
  Effect on MMP: actually increased it
HepG2 cells [8]
  Effect on MMP: decreased MMP, but only at the highest concentrations

## Cc1ccccc1C(=O)Nc1cccc(OC(C)C)c1 [Mepronil]
RPTEC/TERT1 cells [7]
  Effect on MMP: actually increased it
HepG2 cells [8]
  Effect on MMP: decreased MMP, but only at the highest concentrations

## Cc1nc(C(F)(F)F)c(C(=O)Nc2c(Br)cc(OC(F)(F)F)cc2Br)s1 [Thifluzamide]
HepG2 cells [1]; h = 10 µM
  Statistical significance, Viability Galactose settings Resazurin: * (*p < 0.05 (Tables 3, 4))
HepG2 cells [8]
  Effect on MMP: decreased MMP, but only at the highest concentrations
RPTEC/TERT1 cells [3]; RPTEC/TERT1, higher concentrations
  Effect on maximal respiration: tendency to increase maximal respiration
